The record followed here is patent US20040127519A1 (Pharmacia Corporation, priority 2002, published 2004).

For one assay, the target named is Recombinant MAPKAPK2 (Homo sapiens, UniProt P49137). Kind of assay: Determination of MK-2 IC50 (HSP-peptide phosphorylation, anion exchange resin capture assay). As to conditions: MK-2 Avg. IC50, Table I, aminocyanopyridine MK-2 inhibitors. Type of assay: biochemical. On the procedure:
The phosphorylation of HSP-peptide ([…]) by MAPKAPK2 was measured using an anion exchange resin capture assay method. […] The reaction was terminated and [γ^33P]ATP was removed from solution by the addition of 150 μl of AG 1×8 ion exchange resin in 900 mM sodium formate pH 3.0. A 50 μl aliquot of head volume was removed from the quenched reaction mixture and added to a 96-well plate, 150 μl of Microscint-40 (Packard) was added and the amount of phosphorylated-peptide was determined. Allow the Microscint to sit in the plates for 60 minutes prior to counting.
Compounds are evaluated as potential inhibitors of the MK2 kinase by measuring their effects on MK2 phosphorylation of the peptide substrate. Compounds may be screened initially at two concentrations prior to determination of IC50 values. Screening results are expressed as percent inhibition at the concentrations of compound tested. For IC50 value determinations, compounds are tested at six concentrations in ten-fold serial dilutions with each concentration tested in triplicate. Results are expressed as IC50 values in micromolar. The assay is performed at a final concentration of 2% DMSO.

For another assay, the system named is TNFα production. Kind of assay: Lipopolysaccharide (LPS)-induced TNFα production in rats (Rat LPS assay, serum TNFα ELISA). Type of assay: in vivo, Lewis rats. As to conditions: 20 mpk (IP). A general note: In an ELISA, binding on a coated surface is turned into a signal by an enzyme label.
In a further assay the test system is U937 cell TNFα release. Kind of assay: U937 Cell TNFα Release Assay (LPS-stimulated, TNFα ELISA). Type of assay: cell-based. As to conditions: Homo sapiens, U-937, U937 cells. How it is done: U937 Cell TNFα Release Assay
The human monocyte-like cell line, U937 (ATCC #CRL-1593.2), is cultured in RPMI1640 media with 10% heat-inactivated fetal calf serum (GIBCO), glutamine and pen/strep at 37° C. and 5% CO2. Differentiation of U937 to monocytic/macrophage-like cells is induced by the addition of phorbol12-myristate 13-acetate (Sigma) at final concentration of 20 ng/ml to a culture of U937 cells at ˜0.5 million cells/ml and incubated for 24 hrs. The cells are centrifuged, washed with PBS and resuspended in fresh media without PMA and incubated for 24 hrs. Cells adherent to the culture flask are harvested by scraping, centrifugation, and resuspended in fresh media to 2 million cells/ml, and 0.2 ml is aliquoted to each of 96 wells in flat-bottom plate. Cells are then incubated for an additional 24 hrs to allow for recovery. […]
ELISA plates (NUNC-Immuno™ Plate Maxisorb™ Surface) were coated with purified mouse monoclonal IgG1 anti-human TNFα antibody (R&D Systems #MAB610; 1.25 ug/ml in sodium bicarbonate pH 8.0, 0.1 ml/well) and incubated at 4° C. […] Enzymatic conversion of ABTS to colored product was measured after 5-30 minutes using a SpectroMax 340 spectrophotometer (Molecular Devices) at 405 nm. TNF levels were quantitated from a recombinant human TNFα (R&D Systems #210-TA-010) standard curve using a quadratic parameter fit generated by SoftMaxPRO software. […]

Sequence of Recombinant MAPKAPK2 (P49137 whole entry, species assumed): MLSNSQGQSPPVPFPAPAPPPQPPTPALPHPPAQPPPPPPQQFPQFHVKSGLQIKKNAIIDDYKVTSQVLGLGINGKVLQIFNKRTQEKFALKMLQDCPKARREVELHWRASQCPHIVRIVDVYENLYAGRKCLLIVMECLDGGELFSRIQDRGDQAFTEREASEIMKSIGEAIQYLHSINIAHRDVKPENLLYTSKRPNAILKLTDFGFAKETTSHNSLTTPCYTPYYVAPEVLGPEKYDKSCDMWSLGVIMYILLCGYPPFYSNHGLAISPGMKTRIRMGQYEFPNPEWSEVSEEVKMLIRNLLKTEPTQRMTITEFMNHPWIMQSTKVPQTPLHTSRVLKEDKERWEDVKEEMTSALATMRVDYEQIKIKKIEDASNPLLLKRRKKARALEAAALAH

A word on the IC50: it is the concentration that gives 50% inhibition. Regarding `COCC1Cc2c(nc(N)c(C#N)c2N)O1` (centres unmarked) [Example 118], the concentration for half-maximal inhibition (IC50) on Recombinant MAPKAPK2 came to 119 µM.

Turning to `N#Cc1c(-c2ccco2)cc(-c2c[nH]c3ccccc23)nc1N` [Example 119], the IC50 on Recombinant MAPKAPK2 is 120 µM.

`N#Cc1c(-c2ccco2)cc(-c2ccc(-n3ccnc3)cc2)nc1N` [Example 120]: the IC50 on Recombinant MAPKAPK2 stood at 121 µM.

As for `N#Cc1c(-c2ccco2)cc(-c2ccc(O)cc2)nc1N` [Example 121], at Recombinant MAPKAPK2, the IC50 worked out at 122 µM.

Take `N#Cc1c(N)nc2c(c1-c1ccco1)C1CCC2C1` (centres unmarked) [Example 122]: the IC50 on Recombinant MAPKAPK2 amounted to 122 µM.

With `CC(C)OCC1Cc2c(nc(N)c(C#N)c2N)O1` (centres unmarked) [Example 123], on Recombinant MAPKAPK2, the IC50 was 125 µM.

For `N#Cc1c(-c2ccco2)cc(-c2cccc(B(O)O)c2)nc1N` [Example 124], the IC50 at Recombinant MAPKAPK2 was 126 µM.

As for `N#Cc1c(-c2ccc(Br)cc2)cc(-c2ccco2)nc1N` [Example 126], the IC50 at Recombinant MAPKAPK2 was determined as 130 µM.

With `N#Cc1c(N)nc2c(c1N)CC(COC(F)(F)C(F)F)O2` (centres unmarked) [Example 127], on Recombinant MAPKAPK2, the IC50 is 131 µM.

Turning to `N#Cc1c(-c2ccc(C(F)(F)F)cc2F)cc(-c2ccco2)nc1N` [Example 128], the concentration for half-maximal inhibition (IC50) on Recombinant MAPKAPK2 came to 133 µM.

With `COc1ccccc1-c1c(C#N)c(N)nc2c1CCc1n[nH]cc1-2` [Example 129], the IC50 on Recombinant MAPKAPK2 is 136 µM.

With `CC1Cc2n[nH]cc2-c2nc(N)c(C#N)c(-c3ccccc3F)c21` (centres unmarked) [Example 130], at Recombinant MAPKAPK2, the IC50 is 142 µM.

Consider `CCc1c(C#N)c(N)nc2[nH]nc(N)c12` [Example 131], for which the concentration for half-maximal inhibition (IC50) at Recombinant MAPKAPK2 is 146 µM.

For the molecule `N#Cc1c(-c2ccco2)cc(-c2ccccn2)nc1N` [Example 132], the IC50 at Recombinant MAPKAPK2 was 149 µM.

For the molecule `N#Cc1c(-c2ccco2)cc(-c2cccc3cccc(O)c23)nc1N` [Example 133], the IC50 on Recombinant MAPKAPK2 is 153 µM.

For `N#Cc1c(N)nc2c(c1-c1ccc(C(=O)O)cc1)CCc1[nH]ncc1-2` [Example 134], the IC50 at Recombinant MAPKAPK2 was 155 µM.

With `N#Cc1c(-c2ccco2)cc(-c2ccc(Cl)c(Cl)c2)nc1N` [Example 135], the IC50 on Recombinant MAPKAPK2 was found to be 156 µM.

Take `N#Cc1c(-c2ccco2)cc(-c2ccc3c(c2)Nc2ccccc2S3)nc1N` [Example 136]: the half-maximal inhibitory concentration (IC50) on Recombinant MAPKAPK2 was determined as 158 µM.

Consider `N#Cc1c(N)nc2ccccc2c1C(=O)O` [Example 137], for which the IC50 at Recombinant MAPKAPK2 stood at 161 µM.

`N#Cc1c(-c2ccccc2F)cc(-c2ccco2)nc1Nc1ccccc1` [Example 138]: the IC50 on Recombinant MAPKAPK2 was 162 µM.

`N#Cc1c(-c2cccc(F)c2)cc(-c2ccco2)nc1N` [Example 139]: the IC50 on Recombinant MAPKAPK2 worked out at 164 µM.

For `N#Cc1c(-c2ccc(F)cc2)cc(-c2ccco2)nc1N` [Example 140], the IC50 on Recombinant MAPKAPK2 turned out to be 165 µM.

For the molecule `CC(C)(C)OCC1Cc2c(nc(N)c(C#N)c2N)O1` (centres unmarked) [Example 141], at Recombinant MAPKAPK2, the IC50 amounted to 167 µM.

On to `N#Cc1c(-c2ccco2)cc(-c2nccs2)nc1N` [Example 142], for which, at Recombinant MAPKAPK2, the IC50 stood at 167 µM.

With `N#Cc1c(-c2ccccc2F)cc(-c2ccco2)nc1N1CCCCC1` [Example 143], at Recombinant MAPKAPK2, the IC50 was 176 µM.

As to `N#Cc1c(-c2ccco2)cc(-c2ccc(Cl)cc2)nc1N` [Example 144], the IC50 on Recombinant MAPKAPK2 was determined as 182 µM.

Regarding `COc1ccccc1-c1cc(-c2ccc(O)cc2)nc(N)c1C#N` [Example 145], the IC50 at Recombinant MAPKAPK2 stood at 183 µM.

Turning to `N#Cc1c(-c2ccccc2O)cc(-c2ccco2)nc1N` [Example 146], the IC50 at Recombinant MAPKAPK2 was found to be 185 µM.

On to `COC(=O)c1cccc(-c2c(C#N)c(N)nc3c2CCc2[nH]ncc2-3)c1` [Example 147], for which, at Recombinant MAPKAPK2, the IC50 turned out to be 191 µM.

For `Cc1ccc(-c2cc(-c3ccccc3Cl)c(C#N)c(N)n2)o1` [Example 148], the IC50 on Recombinant MAPKAPK2 was 192 µM.

For `COC(=O)c1ccc(-c2cc(-c3ccco3)c(C#N)c(N)n2)cc1` [Example 150], the IC50 at Recombinant MAPKAPK2 was 199 µM.

One may read the inhibition as the change of the read-out against control, counted positive when it falls. In the assay with TNFα production, `C=CCNc1sc2c(-c3ccc(Br)cc3)c(C#N)c(N)nc2c1C#N` [Example 224, 2-(allylamino)-5-amino-7-(4-bromophenyl)thieno[3,2-b]pyridine-3,6-dicarbonitrile] yielded an inhibition at 20 mg/kg of 60%. Also, the IC50 in the assay with U937 cell TNFα release is 2.9 µM.

Take `N#Cc1c(N)nc2c(c1-c1cccnc1)CCCCCC2` [Example 225, 2-amino-4-pyridin-3-yl-5,6,7,8,9,10-hexahydrocycloocta[b]pyridine-3-carbonitrile]: 20 mg/kg produced 88% inhibition in the assay with TNFα production. In the assay on U937 cell TNFα release, this molecule came in with an IC50 of 6.9 µM.
